Counter-ions that a name gives are not always drawn.
Biological target: human recombinant LRRK2 protein (Homo sapiens, UniProt Q5S007)
Experiment: LRRK2 kinase activity assay (ADP-Glo, LRRKtide peptide)
Format: biochemical
Conditions: human recombinant LRRK2 wt, LRRKtide peptide and ATP, 1 h at 37° C.
Description: The inhibition of LRRK2 kinase was assessed using human recombinant LRRK2 protein in an in vitro peptide-based kinase assay.
LRRK2 Kinase reactions were carried out in 384-well white polystyrene plates in a final volume of 6 μl using ADP-Glo™ Kinase Assay kit (Promega Corp.). Compound and substrates (LRRKtide peptide and ATP) in assay buffer were first dispensed in wells. Kinase reaction was then started by the addition of human recombinant LRRK2 protein. After 1 h-incubation at 37° C., the enzymatic reactions was stopped by the addition of 6 μl of ADP-Glo Reagent-1 and an additional 40-minutes incubation at 23° C. (residual ATP depletion). A final 30-minutes incubation after 12 μL reagent-2 addition (ADP to ATP conversion and luciferin/luciferase reaction) was performed before luminescent signal acquisition (EnVision™ multimode plate reader—PerkinElmer, Inc.). Data from 10 individual concentrations of tested compounds (N=2) were fitted (XLfit™—ID Business Solutions Ltd) to deliver IC50s (compound concentration leading to 50% inhibition of reference enzymatic activity).
The compounds are dissolved to 5 mM in DMSO. When needed, solutions are sonicated in a bath sonicator.
Table 2 provides the pIC50 values of the compounds according to the invention, obtained using the above mentioned kinase assay. Activities are represented as +++, ++ and +, having the following meanings: • «+++» means an IC50<10 nM • «++» means an IC50<100 nM • «+» means an IC50<1 μM • «−» means an IC50>1 μM

human recombinant LRRK2 protein, sequence (Q5S007 whole entry): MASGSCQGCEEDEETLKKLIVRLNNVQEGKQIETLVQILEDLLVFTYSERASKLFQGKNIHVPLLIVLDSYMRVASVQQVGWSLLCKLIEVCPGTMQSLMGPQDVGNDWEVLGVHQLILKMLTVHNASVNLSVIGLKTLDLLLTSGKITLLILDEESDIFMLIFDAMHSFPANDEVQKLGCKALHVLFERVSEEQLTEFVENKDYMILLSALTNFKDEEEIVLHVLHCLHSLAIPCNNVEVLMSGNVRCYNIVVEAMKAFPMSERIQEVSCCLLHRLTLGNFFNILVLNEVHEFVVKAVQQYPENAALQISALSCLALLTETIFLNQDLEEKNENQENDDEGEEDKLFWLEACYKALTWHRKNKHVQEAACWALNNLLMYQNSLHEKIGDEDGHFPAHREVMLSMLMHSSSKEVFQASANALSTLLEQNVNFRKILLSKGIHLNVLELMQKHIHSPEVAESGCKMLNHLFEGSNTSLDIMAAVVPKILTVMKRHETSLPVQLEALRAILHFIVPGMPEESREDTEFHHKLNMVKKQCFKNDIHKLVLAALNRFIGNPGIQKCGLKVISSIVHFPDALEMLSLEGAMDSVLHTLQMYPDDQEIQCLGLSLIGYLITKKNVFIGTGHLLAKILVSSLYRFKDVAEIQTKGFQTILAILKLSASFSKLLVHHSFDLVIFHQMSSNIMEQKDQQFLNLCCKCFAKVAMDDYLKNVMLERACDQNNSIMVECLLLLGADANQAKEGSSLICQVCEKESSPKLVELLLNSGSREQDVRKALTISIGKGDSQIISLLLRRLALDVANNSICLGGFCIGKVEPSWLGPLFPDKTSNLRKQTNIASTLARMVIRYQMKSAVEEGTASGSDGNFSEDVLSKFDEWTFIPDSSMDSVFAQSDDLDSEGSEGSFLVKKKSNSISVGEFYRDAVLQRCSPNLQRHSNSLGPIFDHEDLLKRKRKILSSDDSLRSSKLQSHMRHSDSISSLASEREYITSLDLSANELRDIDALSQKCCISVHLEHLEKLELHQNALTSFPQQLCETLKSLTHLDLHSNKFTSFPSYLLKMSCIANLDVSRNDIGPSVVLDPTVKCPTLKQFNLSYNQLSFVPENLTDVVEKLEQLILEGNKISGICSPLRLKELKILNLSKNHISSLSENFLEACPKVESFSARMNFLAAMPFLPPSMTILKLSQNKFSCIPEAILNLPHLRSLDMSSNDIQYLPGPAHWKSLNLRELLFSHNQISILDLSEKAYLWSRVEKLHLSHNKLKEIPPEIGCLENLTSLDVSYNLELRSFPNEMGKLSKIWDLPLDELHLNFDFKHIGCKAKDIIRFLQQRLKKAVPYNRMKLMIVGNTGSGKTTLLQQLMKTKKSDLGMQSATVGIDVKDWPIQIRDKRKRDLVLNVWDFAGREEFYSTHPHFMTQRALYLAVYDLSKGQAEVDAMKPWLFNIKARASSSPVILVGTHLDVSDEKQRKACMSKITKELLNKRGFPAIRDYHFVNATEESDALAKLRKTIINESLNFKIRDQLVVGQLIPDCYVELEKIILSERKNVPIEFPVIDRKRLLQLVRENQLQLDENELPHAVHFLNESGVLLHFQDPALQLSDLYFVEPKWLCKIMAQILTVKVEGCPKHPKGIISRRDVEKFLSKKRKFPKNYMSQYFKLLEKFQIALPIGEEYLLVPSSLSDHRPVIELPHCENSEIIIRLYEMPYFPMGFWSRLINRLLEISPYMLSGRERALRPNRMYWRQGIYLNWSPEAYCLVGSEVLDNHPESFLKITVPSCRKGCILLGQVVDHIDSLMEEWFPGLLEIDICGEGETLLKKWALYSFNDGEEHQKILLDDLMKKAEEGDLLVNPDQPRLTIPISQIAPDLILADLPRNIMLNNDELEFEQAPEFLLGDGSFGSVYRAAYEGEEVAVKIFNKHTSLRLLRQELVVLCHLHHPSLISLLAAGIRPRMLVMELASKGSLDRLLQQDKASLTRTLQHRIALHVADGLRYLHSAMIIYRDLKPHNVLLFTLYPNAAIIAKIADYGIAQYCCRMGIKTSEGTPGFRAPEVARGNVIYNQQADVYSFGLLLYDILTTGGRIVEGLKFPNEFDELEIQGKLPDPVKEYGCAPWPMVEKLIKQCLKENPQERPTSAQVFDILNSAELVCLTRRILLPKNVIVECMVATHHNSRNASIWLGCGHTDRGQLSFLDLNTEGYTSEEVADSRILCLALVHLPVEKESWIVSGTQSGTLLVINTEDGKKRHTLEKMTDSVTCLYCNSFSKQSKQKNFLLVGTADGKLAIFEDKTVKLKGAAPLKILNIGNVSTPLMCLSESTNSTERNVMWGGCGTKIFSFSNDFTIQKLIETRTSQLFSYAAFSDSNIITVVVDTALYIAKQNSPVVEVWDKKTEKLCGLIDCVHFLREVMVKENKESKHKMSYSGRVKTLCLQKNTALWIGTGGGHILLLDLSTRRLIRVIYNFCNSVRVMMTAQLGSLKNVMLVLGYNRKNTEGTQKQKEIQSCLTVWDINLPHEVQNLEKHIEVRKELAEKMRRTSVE

IC50 [µM] | SMILES
< 0.01 | C[C@@H]1COCCOCC(F)n2cc(cn2)-c2n[nH]c3ccc(cc23)O1 (single isomer, unassigned) [Example 105, (6R*,13R)-6-fluoro-13-methyl-8,11,14-trioxa-4,5,19,20-tetraazatetracyclo[13.5.2.1^2,5.0^18,21]tricosa-1(20),2(23),3, 15(22),16,18(21)-hexaene]
< 0.1 | C[C@@H]1COCCOCC(F)n2cc(cn2)-c2n[nH]c3ccc(cc23)O1 (single isomer, unassigned) [Example 106, (6S*,13R)-6-fluoro-13-methyl-8,11,14-trioxa-4,5,19, 20-tetraazatetracyclo[13.5.2.1^2,5.0^18,21]tricosa-1(20),2(23),3,15(22),16,18(21)-hexaene]
< 0.1 | COCC1CCOc2ccc3[nH]nc(c3c2)-c2cccc(c2)OCC(=O)N1 (single isomer, unassigned) [Example 150, (11S) or (11R)-11-(methoxymethyl)-7,14-dioxa-10,19,20-triazatetracyclo[13.5.2.1^2,6.0^18,21]tricosa-1(20),2(23),3,5,15,17,21-heptaen-9-one]
< 0.1 | COCC1CCOc2ccc3[nH]nc(c3c2)-c2cccc(c2)OCCN1 (single isomer, unassigned) [Example 151, (11S) or (11R)-11-(methoxymethyl)-7,14-dioxa-10,19,20-triazatetracyclo[13.5.2.1^2,6.0^18,21]tricosa-1(20),2(23),3,5,15,17,21-heptaene]
< 0.1 | COCC1CCOc2ccc3[nH]nc(c3c2)-c2cccc(c2)OCC(=O)N1 (single isomer, unassigned) [Example 152, (11R) or (11S)-11-(methoxymethyl)-7,14-dioxa-10,19,20-triazatetracyclo[13.5.2.1^2,6.0^18,21]tricosa-1(20),2(23),3,5,15,17,21-heptaen-9-one]
< 0.1 | COCC1CCOc2ccc3[nH]nc(c3c2)-c2cccc(c2)OCCN1 (single isomer, unassigned) [Example 153, (11R) or (11S)-11-(methoxymethyl)-7,14-dioxa-10,19,20-triazatetracyclo[13.5.2.1^2,6.0^18,21]tricosa-1(20),2(23),3,5,15,17,21-heptaene]
< 0.01 | CC1CNCCCOc2ccc3[nH]nc(c3c2)-c2cc(cc(N3CCOCC3)c2)O1 (single isomer, unassigned) [Example 177, (8R) or (8S)-8-methyl-4-(morpholin-4-yl)-7,14-dioxa-10,19,20-triazatetracyclo[13.5.2.1^2,6.0^18,21]tricosa-1(20),2,4,6(23),15,17,21-heptaene]
< 0.01 | CC1CNCCCOc2ccc3[nH]nc(c3c2)-c2cc(cc(N3CCOCC3)c2)O1 (single isomer, unassigned) [Example 178, (8R) or (8S)-8-methyl-4-(morpholin-4-yl)-7,14-dioxa-10,19,20-triazatetracyclo[13.5.2.1^2,6.0^18,21]tricosa-1(20),2,4,6(23),15,17,21-heptaene]
< 0.01 | C[C@@H]1CNCC[C@H](C)Oc2ccc3[nH]nc(c3c2)-c2cncc(c2)O1 (single isomer, unassigned) [Example 229, (8R or 8S,13S)-8,13-dimethyl-7,14-dioxa-4,10,19,20-tetraazatetracyclo[13.5.2.1^2,6.0^18,21]tricosa-1(20),2,4,6(23),15(22),16,18(21)-heptaene]
< 0.1 | C[C@H]1CCNC[C@H](C)Oc2cncc(c2)-c2n[nH]c3ccc(cc23)O1 (single isomer, unassigned) [Example 230, (8S or 8R,13S)-8,13-dimethyl-7,14-dioxa-4,10,19,20-tetraazatetracyclo[13.5.2.1^2,6.0^18,21]tricosa-1(20),2,4,6(23),15(22),16,18(21)-heptaene]
< 1 | C[C@@H]1CNCCO[C@@H](C)c2cncc(c2)-c2n[nH]c3ccc(cc23)O1 (single isomer, unassigned) [Example 234, (7S or 7R,13R)-7,13-dimethyl-8,14-dioxa-4,11,19,20-tetraazatetracyclo[13.5.2.1^2,6.0^18,21]tricosa-1(20),2(23),3,5,15(22),16,18(21)-heptaene]
< 0.1 | C[C@@H]1CNCCO[C@H](C)c2cncc(c2)-c2n[nH]c3ccc(cc23)O1 (single isomer, unassigned) [Example 235, (7R or 7S,13R)-7,13-dimethyl-8,14-dioxa-4,11,19,20-tetraazatetracyclo[13.5.2.1^2,6.0^18,21]tricosa-1(20),2(23),3,5,15(22),16,18(21)-heptaene]
< 0.01 | c1cc2[nH]nc3c2cc1NCCOCCOc1cc-3cc(N2CCOCC2)c1 [Example 1, 4-(morpholin-4-yl)-7,10-dioxa-13,18,19-triazatetracyclo[12.5.2.1^2,6.0^17,20] docosa-1(19),2(22),3,5,14(21),15,17(20)-heptaene]
< 0.01 | c1cc2[nH]nc3c2cc1OCCCOCCOc1cncc-3c1 [Example 2, 7,10,14-trioxa-4,19,20-triazatetracyclo[13.5.2.1^2,6.0^18,21]tricosa-1(20),2(23), 3,5,15(22),16,18(21)-heptaene]
< 0.01 | c1cc2[nH]nc3c2cc1OCCOCCCOc1cc-3cc(N2CCOCC2)c1 [Example 3, 4-(morpholin-4-yl)-7,11,14-trioxa-19,20-diazatetracyclo[13.5.2.1^2,6.0^18,21] tricosa-1(20),2(23),3,5,15(22),16,18(21)-heptaene]
< 0.01 | c1cc2[nH]nc3c2cc1NCCCOCCOc1cncc-3c1 [Example 4, 7,10-dioxa-4,14,19,20-tetraazatetracyclo[13.5.2.1^2,6.0^18,21]tricosa-1(20),2(23), 3,5,15(22),16,18(21)-heptaene]
< 0.01 | c1cc2[nH]nc3c2cc1OCCCOCCCn1cc-3cn1 [Example 5, 9,13-dioxa-4,5,18,19-tetraazatetracyclo[12.5.2.1^2,5.0^17,20] docosa-1(19),2(22),3,14(21),15,17(20)-hexaene]
< 0.01 | c1cc2[nH]nc3c2cc1OCCCOCCCCn1cc-3cn1 [Example 6, 10,14-dioxa-4,5,19,20-tetraazatetracyclo[13.5.2.1^2,5.0^18,21]tricosa-1(20),2(23), 3,15(22),16,18(21)-hexaene]
< 0.01 | C[C@@H]1COCCCOc2nccc(n2)-c2n[nH]c3ccc(cc23)O1 [Example 7, (13R)-13-methyl-7,11,14-trioxa-5,19,20,23-tetraazatetracyclo[13.5.2.1^2,6.0^18,21]tricosa-1(20),2(23),3,5,15(22),16,18(21)-heptaene]
< 0.01 | C[C@@H]1CCOCCCOc2ccc3[nH]nc(c3c2)-c2cnn1c2 [Example 8, (6R)-6-methyl-9,13-dioxa-4,5,18,19-tetraazatetracyclo[12.5.2.1^2,5.0^17,20] docosa-1(19),2(22),3,14(21),15,17(20)-hexaene]
< 0.1 | C[C@@H]1OCCOC[C@H](C)Oc2ccc3[nH]nc(c3c2)-c2cncc1c2 [Example 9, (7S,13S)-7,13-dimethyl-8,11,14-trioxa-4,19,20-triazatetracyclo[13.5.2.1^2,6.0^18,21]tricosa-1(20),2(23),3,5,15(22),16,18(21)-heptaene]
< 0.1 | C[C@H]1COCCO[C@H](C)c2cncc(c2)-c2n[nH]c3ccc(cc23)O1 [Example 10, (7R,13S)-7,13-dimethyl-8,11,14-trioxa-4,19,20-triazatetracyclo[13.5.2.1^2,6.0^18,21]tricosa-1(20),2,4,6(23),15(22),16,18(21)-heptaene]
< 0.1 | C[C@@H]1COCC[C@H](C)Oc2cncc(c2)-c2n[nH]c3ccc(cc23)O1 [Example 11, (8S,13R)-8,13-dimethyl-7,11,14-trioxa-4,19,20-triazatetracyclo[13.5.2.1^2,6.0^18,21]tricosa-1(20),2(23),3,5,15(22),16,18(21)-heptaene]
< 0.1 | C[C@H]1CCOC[C@H](C)Oc2ccc3[nH]nc(c3c2)-c2cncc(c2)O1 [Example 12, (8S,13S)-8,13-dimethyl-7,11,14-trioxa-4,19,20-triazatetracyclo[13.5.2.1^2,6.0^18,21]tricosa-1(20),2(23),3,5,15(22),16,18(21)-heptaene]
< 0.1 | C[C@@H]1COCCO[C@H](C)c2cncc(c2)-c2n[nH]c3ccc(cc23)O1 [Example 13, (7R,13R)-7,13-dimethyl-8,11,14-trioxa-4,19,20-triazatetracyclo[13.5.2.1^2,6. 0^18,21]tricosa-1(20),2(23),3,5,15(22),16,18(21)-heptaene hydrochloride]
< 0.1 | C[C@@H]1COCCO[C@@H](C)c2cncc(c2)-c2n[nH]c3ccc(cc23)O1 [Example 14, (7S,13R)-7,13-dimethyl-8,11,14-trioxa-4,19,20-triazatetracyclo[13.5.2.1^2,6. 0^18,21]tricosa-1(20),2(23),3,5,15(22),16,18(21)-heptaene hydrochloride]
< 0.01 | C[C@H]1CCOCCCOc2ccc3[nH]nc(c3c2)-c2cnn1c2 [Example 15, (6S)-6-methyl-9,13-dioxa-4,5,18,19-tetraazatetracyclo[12.5.2.1^2,5.0^17,20] docosa-1(19),2(22),3,14(21),15,17(20)-hexaene]

Source: patent publication US20240246992A1, “MACROCYCLIC LRRK2 KINASE INHIBITORS” (LES LABORATOIRES SERVIER, priority 2021, published 2024)
